From ChEMBL document CHEMBL5543167, “Design, Synthesis, and Biological Evaluation of Novel EGFR PROTACs Targeting C797S Mutation” (J Med Chem, 2024)

Legend:
[1] = biological target: Protein cereblon/Epidermal growth factor receptor (Homo sapiens, UniProt P00533+Q96SW2, T790M/C797S/L858R); test: PROTAC activity at CRBN/EGFR L858R/T790M/C797S mutant in human H1975-TM cells assessed as induction of EGFR degradation incubated for 24 hrs by Western blot analysis; type: cell-based
[2] = tested on: Protein cereblon/Epidermal growth factor receptor (Homo sapiens), P00533+Q96SW2 [L858R,T790M,C797S]; test: PROTAC activity at CRBN/EGFR L858R/T790M/C797S mutant in human H1975-TM cells assessed as induction of EGFR degradation by measuring maximal efficacy at 300 nM incubated for 24 hrs by Western blot analysis relative to control; type: cell-based
[3] = Antiproliferative activity against human HI975-TM cells harboring EGFR L858R/T790M/C797S mutant assessed as inhibition of cell growth incubated for 72 hrs by CCK-8 assay; type: functional, cell-based; details: H1975-TM
[4] = Antiproliferative activity against human PC-9-TM cells harboring EGFR exon 19 deletion/T790M/[…] mutant assessed as inhibition of cell proliferation incubated for 72 hrs by CCK8 assay; type: functional, cell-based
[5] = tested on: NCI-H1975; test: Antiproliferative activity against human NCI-H1975 cells harboring EGFR L858R/T790M mutant assessed as inhibition of cell proliferation incubated for 72 hrs by CCK8 assay; type: functional, cell-based; details: NCI-H1975, 72 h
[6] = tested on: PC-9; test: Antiproliferative activity against human PC-9 cells harboring EGFR exon 19 deletion mutant assessed as inhibition of cell proliferation incubated for 72 hrs by CCK8 assay; type: functional, cell-based; details: PC-9, 72 h
[7] = tested on: A549; test: Antiproliferative activity against human A549 cells harboring wildtype EGFR assessed as inhibition of cell proliferation incubated for 72 hrs by CCK8 assay; type: functional, cell-based; details: A549, 72 h
[8] = biological target: Protein cereblon/Epidermal growth factor receptor (Homo sapiens, UniProt P00533+Q96SW2, T790M/L858R); test: PROTAC activity at CRBN/EGFR L858R/T790M double mutant in human NCI-H1975 cells assessed as induction of EGFR degradation; type: cell-based
[9] = tested on: Protein cereblon/Epidermal growth factor receptor (Homo sapiens), P00533+Q96SW2 [L858R,T790M,C797S]; test: PROTAC activity at CRBN/EGFR L858R/T790M/C797S mutant in human H1975-TM cells assessed as induction of EGFR degradation by measuring remaining activity at 100 nM incubated for 24 hrs by Western blot analysis (reference value: 100%); type: cell-based
[10] = biological target: von Hippel-Lindau disease tumor suppressor/Epidermal growth factor receptor (Homo sapiens, UniProt P00533+P40337, L858R); test: PROTAC activity at VHL/EGFR L858R mutant in human NCI-H3255 cells assessed as induction of EGFR degradation incubated for 24 hrs by immunoblotting analysis; type: cell-based
[11] = biological target: Epidermal growth factor receptor (Homo sapiens, UniProt P00533, C797S/L858R/T790M); test: Binding affinity to EGFR L858R/T790M/C797S mutant (unknown origin) assessed as dissociation constant incubated for 10 mins under dark condition by MST analysis
[12] = tested on: Protein cereblon/Epidermal growth factor receptor (Homo sapiens), P00533+Q96SW2 [L858R,T790M,C797S]; test: Induction of EGFR L858R/T790M/C797S mutant in human H1975-TM cells assessed as remaining activity at 1 uM incubated for 6 hrs by Western blot analysis (reference value: 100%); type: cell-based

Sequence of Protein cereblon/Epidermal growth factor receptor (Homo sapiens, UniProt P00533+Q96SW2, T790M/C797S/L858R) (P00533 25-1210 T790M/C797S/L858R limits assumed, stated change not applied): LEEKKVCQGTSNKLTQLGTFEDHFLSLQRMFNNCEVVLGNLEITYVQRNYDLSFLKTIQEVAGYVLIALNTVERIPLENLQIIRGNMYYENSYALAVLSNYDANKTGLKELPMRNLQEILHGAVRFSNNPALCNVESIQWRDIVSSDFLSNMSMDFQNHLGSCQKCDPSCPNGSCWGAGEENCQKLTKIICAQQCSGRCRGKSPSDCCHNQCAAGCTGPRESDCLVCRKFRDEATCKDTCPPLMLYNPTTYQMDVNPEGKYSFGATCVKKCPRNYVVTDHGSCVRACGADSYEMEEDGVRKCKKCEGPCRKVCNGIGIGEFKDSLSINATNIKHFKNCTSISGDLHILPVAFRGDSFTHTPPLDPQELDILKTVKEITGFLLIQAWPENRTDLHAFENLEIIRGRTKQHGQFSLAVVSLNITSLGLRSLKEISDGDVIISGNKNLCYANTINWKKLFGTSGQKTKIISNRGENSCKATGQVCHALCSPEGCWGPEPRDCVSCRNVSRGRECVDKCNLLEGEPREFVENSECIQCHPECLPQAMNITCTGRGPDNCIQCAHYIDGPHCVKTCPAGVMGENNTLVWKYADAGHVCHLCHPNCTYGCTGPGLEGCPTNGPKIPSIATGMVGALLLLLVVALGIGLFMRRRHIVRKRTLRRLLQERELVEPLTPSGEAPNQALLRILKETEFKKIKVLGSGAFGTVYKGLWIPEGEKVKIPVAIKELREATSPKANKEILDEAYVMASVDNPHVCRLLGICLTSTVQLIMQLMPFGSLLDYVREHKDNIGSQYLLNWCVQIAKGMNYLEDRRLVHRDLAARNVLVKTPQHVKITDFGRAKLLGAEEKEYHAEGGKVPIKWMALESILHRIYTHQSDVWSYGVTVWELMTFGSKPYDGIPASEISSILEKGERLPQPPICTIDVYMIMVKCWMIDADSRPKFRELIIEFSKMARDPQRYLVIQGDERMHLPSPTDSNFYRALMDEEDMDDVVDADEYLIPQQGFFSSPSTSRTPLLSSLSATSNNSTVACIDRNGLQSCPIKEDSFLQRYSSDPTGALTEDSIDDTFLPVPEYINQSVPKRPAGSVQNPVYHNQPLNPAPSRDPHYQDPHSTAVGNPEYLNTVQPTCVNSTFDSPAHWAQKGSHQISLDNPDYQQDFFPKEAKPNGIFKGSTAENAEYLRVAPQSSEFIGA
Sequence of Protein cereblon/Epidermal growth factor receptor (Homo sapiens, UniProt P00533+Q96SW2, T790M/C797S/L858R) (Q96SW2 whole entry, stated change not applied): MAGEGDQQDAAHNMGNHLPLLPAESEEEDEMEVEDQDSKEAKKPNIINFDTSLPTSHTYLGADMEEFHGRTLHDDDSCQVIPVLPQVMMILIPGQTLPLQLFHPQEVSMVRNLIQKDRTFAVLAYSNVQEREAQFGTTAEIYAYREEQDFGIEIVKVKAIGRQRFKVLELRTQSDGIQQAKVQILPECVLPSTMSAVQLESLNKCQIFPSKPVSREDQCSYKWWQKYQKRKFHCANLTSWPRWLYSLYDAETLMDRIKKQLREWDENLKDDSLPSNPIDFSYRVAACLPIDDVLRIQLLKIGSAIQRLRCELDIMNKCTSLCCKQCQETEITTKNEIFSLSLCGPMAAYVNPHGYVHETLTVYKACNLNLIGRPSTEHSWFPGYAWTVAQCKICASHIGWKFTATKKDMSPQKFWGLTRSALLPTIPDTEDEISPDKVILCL
Sequence of von Hippel-Lindau disease tumor suppressor/Epidermal growth factor receptor (P00533 25-1210 L858R limits assumed, stated change not applied): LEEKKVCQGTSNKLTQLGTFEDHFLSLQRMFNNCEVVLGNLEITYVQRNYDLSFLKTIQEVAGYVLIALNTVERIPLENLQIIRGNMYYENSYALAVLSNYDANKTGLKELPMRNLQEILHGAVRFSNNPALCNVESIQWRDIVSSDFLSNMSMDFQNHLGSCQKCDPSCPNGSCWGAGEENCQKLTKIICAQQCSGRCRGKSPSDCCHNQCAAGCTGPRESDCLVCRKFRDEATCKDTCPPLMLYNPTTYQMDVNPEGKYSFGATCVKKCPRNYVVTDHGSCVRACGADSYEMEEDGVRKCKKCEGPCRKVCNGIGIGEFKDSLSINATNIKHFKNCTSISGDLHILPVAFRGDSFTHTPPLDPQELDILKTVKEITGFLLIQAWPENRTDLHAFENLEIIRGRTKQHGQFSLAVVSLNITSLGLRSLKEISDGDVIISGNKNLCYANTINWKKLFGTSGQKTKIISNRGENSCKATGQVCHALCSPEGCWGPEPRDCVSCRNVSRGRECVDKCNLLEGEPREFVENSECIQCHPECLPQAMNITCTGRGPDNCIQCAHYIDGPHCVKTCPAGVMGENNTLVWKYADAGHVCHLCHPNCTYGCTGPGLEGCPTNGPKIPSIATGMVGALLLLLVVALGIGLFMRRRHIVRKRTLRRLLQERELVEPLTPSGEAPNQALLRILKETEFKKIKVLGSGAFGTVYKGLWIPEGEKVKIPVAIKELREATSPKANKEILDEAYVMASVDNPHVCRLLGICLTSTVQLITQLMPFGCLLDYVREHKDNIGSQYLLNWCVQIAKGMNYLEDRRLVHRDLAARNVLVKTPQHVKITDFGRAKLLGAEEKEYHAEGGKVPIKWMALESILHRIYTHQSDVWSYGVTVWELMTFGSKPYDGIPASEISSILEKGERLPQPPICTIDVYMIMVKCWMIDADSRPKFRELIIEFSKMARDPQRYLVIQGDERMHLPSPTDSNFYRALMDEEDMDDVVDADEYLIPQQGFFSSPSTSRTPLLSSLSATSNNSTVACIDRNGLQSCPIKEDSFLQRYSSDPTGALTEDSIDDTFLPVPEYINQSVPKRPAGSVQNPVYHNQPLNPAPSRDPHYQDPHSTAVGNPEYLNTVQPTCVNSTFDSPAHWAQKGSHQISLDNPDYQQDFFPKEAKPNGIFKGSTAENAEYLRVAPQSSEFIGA
Sequence of von Hippel-Lindau disease tumor suppressor/Epidermal growth factor receptor (P40337 whole entry, stated change not applied): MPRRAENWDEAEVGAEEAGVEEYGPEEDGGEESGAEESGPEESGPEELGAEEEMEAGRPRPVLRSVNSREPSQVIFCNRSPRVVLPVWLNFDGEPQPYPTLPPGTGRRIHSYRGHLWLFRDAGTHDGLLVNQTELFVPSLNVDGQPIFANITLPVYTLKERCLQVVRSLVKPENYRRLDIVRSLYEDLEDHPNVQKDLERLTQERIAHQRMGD
Sequence of Epidermal growth factor receptor (P00533 25-1210 T790M/C797S/L858R limits assumed): as the sequence (P00533 25-1210 T790M/C797S/L858R limits assumed, stated change not applied) above

With CCS(=O)(=O)n1cc(-c2nc(Nc3ccc(N4CCN(CCOCCOCC(=O)Nc5cccc6c5CN(C5CCC(=O)NC5=O)C6=O)CC4)cc3)ncc2C(F)(F)F)c2ccccc21 (stereo not drawn) the DC50 [1] was 25.3 nM, the Emax [2] was > 95% and the IC50 [3] was 34.7 nM.

With COc1cc(N2CCC(N3CCN(C)CC3)CC2)ccc1Nc1ncc(Cl)c(Nc2ccccc2P(C)(C)=O)n1 [BRIGATINIB] the IC50 [3] was 562 nM, the IC50 [4] was 404 nM and the IC50 [5] was 444 nM. For the same compound, the IC50 [6] was 110 nM and the IC50 [7] was 911 nM.

With O=C1CCC(N2C(=O)c3cccc(NCCOCCOCCOCCN4CCN(c5ccc(-c6ccc7c(c6)C(=O)N(C(C(=O)Nc6nccs6)c6ccccc6)C7)cn5)CC4)c3C2=O)C(=O)N1 (stereo not drawn) the DC50 [8] was 5.9 nM.

For CCS(=O)(=O)n1cc(-c2nc(Nc3ccc(N4CCN(CCCCCCCC(=O)Nc5cccc6c5CN(C5CCC(=O)NC5=O)C6=O)CC4)cc3)ncc2C(F)(F)F)c2ccccc21 (stereo not drawn), the DC50 [1] was 17 nM, the Emax [2] was > 95% and the IC50 [3] was 34.2 nM.

CCS(=O)(=O)n1cc(-c2nc(Nc3ccc(N4CCN(CCC(=O)Nc5cccc6c5CN(C5CCC(=O)NC5=O)C6=O)CC4)cc3)ncc2C(F)(F)F)c2ccccc21 (stereo not drawn) gave a DC50 [1] of 26.1 nM, an Emax [2] of 94.7% and an IC50 [3] of 59.9 nM.

Compound CCS(=O)(=O)n1cc(-c2nc(Nc3ccc(N4CCN(CCCCCCC(=O)Nc5cccc6c5CN(C5CCC(=O)N(C)C5=O)C6=O)CC4)cc3)ncc2C(F)(F)F)c2ccccc21 (stereo not drawn) has an Activity [9] of 97.7%.

Work on CCS(=O)(=O)n1cc(-c2nc(Nc3ccc(N4CCN(CCCCC(=O)Nc5cccc6c5CN(C5CCC(=O)NC5=O)C6=O)CC4)cc3)ncc2C(F)(F)F)c2ccccc21 (stereo not drawn) yielded a DC50 [1] of 82.5 nM.

Compound C=CC(=O)Nc1cc(Nc2nccc(-c3cn(C)c4ccccc34)n2)c(OC)cc1N(C)CCN(C)C [OSIMERTINIB] has an IC50 [3] of 2240 nM.

CCS(=O)(=O)n1cc(-c2nc(Nc3ccc(N4CCN(CC(=O)Nc5cccc6c5CN(C5CCC(=O)NC5=O)C6=O)CC4)cc3)ncc2C(F)(F)F)c2ccccc21 (stereo not drawn) showed a DC50 [1] of 30.1 nM, an Emax [2] of 89.3% and an IC50 [3] of 88.7 nM.

For COc1cc2ncnc(Nc3ccc(F)c(Cl)c3)c2cc1OCCCCCOCCOCCC(=O)N[C@H](C(=O)N1C[C@H](O)C[C@H]1C(=O)NCc1ccc(-c2scnc2C)cc1)C(C)(C)C, the DC50 [10] was 39 nM.

With CCS(=O)(=O)n1cc(-c2nc(Nc3ccc(N4CCN(C(=O)CCCC(=O)Nc5cccc6c5CN(C5CCC(=O)NC5=O)C6=O)CC4)cc3)ncc2C(F)(F)F)c2ccccc21 (stereo not drawn) the DC50 [1] was 153 nM, the Emax [2] was 80.4% and the IC50 [3] was 198 nM.

With CCS(=O)(=O)n1cc(-c2nc(Nc3ccc(N4CCN(CCCCCC(=O)Nc5cccc6c5CN(C5CCC(=O)NC5=O)C6=O)CC4)cc3)ncc2C(F)(F)F)c2ccccc21 (stereo not drawn) the DC50 [1] was 59.4 nM, the Emax [2] was 94.6% and the IC50 [3] was 62.9 nM.

In the case of CCS(=O)(=O)n1cc(-c2nc(Nc3ccc(N4CCN(C(=O)CCCCC(=O)Nc5cccc6c5CN(C5CCC(=O)NC5=O)C6=O)CC4)cc3)ncc2C(F)(F)F)c2ccccc21 (stereo not drawn), the DC50 [1] is reported as > 300 nM, the Emax [2] is reported as 48.3% and the IC50 [3] is reported as 188 nM.

In the case of CCS(=O)(=O)n1cc(-c2nc(Nc3ccc(N4CCN(CCCCCCCCC(=O)Nc5cccc6c5CN(C5CCC(=O)NC5=O)C6=O)CC4)cc3)ncc2C(F)(F)F)c2ccccc21 (stereo not drawn), the DC50 [1] is reported as 33.2 nM, the Emax [2] is reported as > 95% and the IC50 [3] is reported as 45.4 nM.

For CCS(=O)(=O)n1cc(-c2nc(Nc3ccc(N4CCN(CCCC(=O)Nc5cccc6c5CN(C5CCC(=O)NC5=O)C6=O)CC4)cc3)ncc2C(F)(F)F)c2ccccc21 (stereo not drawn), the DC50 [1] was 49.7 nM, the Emax [2] was > 95% and the IC50 [3] was 62.7 nM.

Work on CCS(=O)(=O)n1cc(-c2nc(Nc3ccc4c(ccn4CCN(C)C)c3)ncc2C(F)(F)F)c2ccccc21 yielded an IC50 [3] of 16.3 nM.

CCS(=O)(=O)n1cc(-c2nc(Nc3ccc(N4CCN(CCCCCCCCCC(=O)Nc5cccc6c5CN(C5CCC(=O)NC5=O)C6=O)CC4)cc3)ncc2C(F)(F)F)c2ccccc21 (stereo not drawn) gave a DC50 [1] of 68.7 nM, an Emax [2] of 80.6% and an IC50 [3] of 48.6 nM.

For CCS(=O)(=O)n1cc(-c2nc(Nc3ccc(N4CCNCC4)cc3)ncc2C(F)(F)F)c2ccccc21, the Kd [11] was 47.9 nM and the Activity [9] was 106%.

For CC(C)C[C@@H](C=O)NC(=O)[C@H](CC(C)C)NC(=O)[C@H](CC(C)C)NC(=O)OCc1ccccc1, the Activity [12] was 80.3%.

With CCS(=O)(=O)N1C=C(c2nc(Nc3ccc(N4CCN(CCCCC(=O)Nc5cccc6c5CN(C5CCC(=O)NC5=O)C6=O)CC4)cc3)ncc2C(F)(F)F)C2CC=CC=C21 (stereo not drawn) the Emax [2] was > 95% and the IC50 [3] was 93.5 nM.

CCS(=O)(=O)n1cc(-c2nc(Nc3ccc(N4CCN(C(=O)CCC(=O)Nc5cccc6c5CN(C5CCC(=O)NC5=O)C6=O)CC4)cc3)ncc2C(F)(F)F)c2ccccc21 (stereo not drawn) gave a DC50 [1] of 180 nM, an Emax [2] of 88.4% and an IC50 [3] of 419 nM.

CCS(=O)(=O)n1cc(-c2nc(Nc3ccc(N4CCN(CCCCCCCCCCC(=O)Nc5cccc6c5CN(C5CCC(=O)NC5=O)C6=O)CC4)cc3)ncc2C(F)(F)F)c2ccccc21 (stereo not drawn) gave a DC50 [1] of 281 nM, an Emax [2] of 77.3% and an IC50 [3] of 161 nM.

Compound CCS(=O)(=O)n1cc(-c2nc(Nc3ccc(N4CCN(C(=O)CCCCCC(=O)Nc5cccc6c5CN(C5CCC(=O)NC5=O)C6=O)CC4)cc3)ncc2C(F)(F)F)c2ccccc21 (stereo not drawn) has a DC50 [1] of 162 nM, an Emax [2] of 80.1% and an IC50 [3] of 197 nM.

With CCS(=O)(=O)n1cc(-c2nc(Nc3ccc(N4CCN(C(=O)CCCCCCC(=O)Nc5cccc6c5CN(C5CCC(=O)NC5=O)C6=O)CC4)cc3)ncc2C(F)(F)F)c2ccccc21 (stereo not drawn) the DC50 [1] was 159 nM, the Emax [2] was 85.9% and the IC50 [3] was 278 nM.
